Data published in patent publication US20210122730A1, “GLUCOCORTICOID RECEPTOR MODULATORS” (ORIC Pharmaceuticals, Inc., priority 2017, published 2021).

Columns and labels:
CYP2C8 = biological target: T1, CYP2C8 (Homo sapiens, UniProt P10632); experiment: CYP Inhibition Assay (CYP2C8, human liver microsomes, paclitaxel substrate); assay type: in vitro ADME; conditions: pH 7.4; pooled human liver microsomes 0.1 mg/mL, probe substrate paclitaxel
T1 construct: Pooled human microsomes were obtained from Sekisui XenoTech, KS; tissue Sekisui XenoTech, KS; host or cells: pooled human liver microsomes
T1 sequence (P10632 1-490): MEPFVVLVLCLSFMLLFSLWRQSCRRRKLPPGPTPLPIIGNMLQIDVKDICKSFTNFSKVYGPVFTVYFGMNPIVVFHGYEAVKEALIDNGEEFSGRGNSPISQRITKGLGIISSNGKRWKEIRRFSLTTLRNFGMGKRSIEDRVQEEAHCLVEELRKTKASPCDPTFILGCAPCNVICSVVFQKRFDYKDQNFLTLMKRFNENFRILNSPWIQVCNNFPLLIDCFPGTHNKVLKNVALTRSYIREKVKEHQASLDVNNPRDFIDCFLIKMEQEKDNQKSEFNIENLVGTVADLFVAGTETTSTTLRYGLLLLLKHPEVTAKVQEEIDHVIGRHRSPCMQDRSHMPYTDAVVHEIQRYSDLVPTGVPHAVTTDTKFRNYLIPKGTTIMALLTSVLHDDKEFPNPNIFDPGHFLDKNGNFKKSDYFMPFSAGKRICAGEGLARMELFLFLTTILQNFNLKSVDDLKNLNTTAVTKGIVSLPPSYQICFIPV
Experimental: Example B: CYP Inhibition Assay
Objective: To assess the % inhibition of test compounds against CYP2C8 enzyme in human liver microsomes.
Pooled human microsomes were obtained from Sekisui XenoTech, KS, and were used for in vitro assessment of compound inhibitory potential of the major drug metabolizing human CYP enzymes.
Test compounds were dissolved in DMSO as 10 mM stock solutions and diluted to 200 µM in acetonitrile as working solutions. The total concentrations of DMSO and acetonitrile were 0.02% and 0.5%, respectively, in the assay.
The assay was performed in duplicate in a 96-well plate. The reaction mixture ([…]) containing a final concentration of 0.1 mg/mL pooled human liver microsomes, 50 mM potassium phosphate, pH 7.4 buffer, was re-warmed at 37° C. for 5 minutes. The reaction was initiated with NADPH solution which was at 1 mM final concentration, and carried out for 5 minutes at 37° C. It was terminated by the addition of 3-fold volume of quench solution (1:1 acetonitrile:methanol with 0.1% formic acid and the internal standard of tolbutamide). The sample was vortexed, centrifuged at 4,000 rpm for 15 min at 4° C. The incubation in the presence of vehicle (0.02% DMSO and 0.5% acetonitrile) was used as the enzyme activity control. The analyses of metabolite 6α-hydroxypaclitaxel in supernatant was performed with LC-MS/MS method (Sciex API 4500 Qtrap coupled to a Shimadzu LC-20AD HPLC).
The CYP enzyme activity was determined based on the formation of 6a-hydroxypaclitaxel metabolite. The % inhibition was calculated using this equation: % Inhibition=100×(1−Ainactivator/Avehicle), where Ainactivator is the CYP enzyme activity in the presence of test compound, and Avehicle is the CYP activity in the presence of vehicle.

GR = biological target: T2, GR (Homo sapiens, UniProt P04150); experiment: In Vitro GR Luciferase Reporter Assay (antagonist mode, CHO-K1-GR-MMTV-Luc reporter cells); assay type: cell-based
T2 construct: expressed in transfected cells; host or cells: CHO-K1
T2 sequence (P04150 1-777): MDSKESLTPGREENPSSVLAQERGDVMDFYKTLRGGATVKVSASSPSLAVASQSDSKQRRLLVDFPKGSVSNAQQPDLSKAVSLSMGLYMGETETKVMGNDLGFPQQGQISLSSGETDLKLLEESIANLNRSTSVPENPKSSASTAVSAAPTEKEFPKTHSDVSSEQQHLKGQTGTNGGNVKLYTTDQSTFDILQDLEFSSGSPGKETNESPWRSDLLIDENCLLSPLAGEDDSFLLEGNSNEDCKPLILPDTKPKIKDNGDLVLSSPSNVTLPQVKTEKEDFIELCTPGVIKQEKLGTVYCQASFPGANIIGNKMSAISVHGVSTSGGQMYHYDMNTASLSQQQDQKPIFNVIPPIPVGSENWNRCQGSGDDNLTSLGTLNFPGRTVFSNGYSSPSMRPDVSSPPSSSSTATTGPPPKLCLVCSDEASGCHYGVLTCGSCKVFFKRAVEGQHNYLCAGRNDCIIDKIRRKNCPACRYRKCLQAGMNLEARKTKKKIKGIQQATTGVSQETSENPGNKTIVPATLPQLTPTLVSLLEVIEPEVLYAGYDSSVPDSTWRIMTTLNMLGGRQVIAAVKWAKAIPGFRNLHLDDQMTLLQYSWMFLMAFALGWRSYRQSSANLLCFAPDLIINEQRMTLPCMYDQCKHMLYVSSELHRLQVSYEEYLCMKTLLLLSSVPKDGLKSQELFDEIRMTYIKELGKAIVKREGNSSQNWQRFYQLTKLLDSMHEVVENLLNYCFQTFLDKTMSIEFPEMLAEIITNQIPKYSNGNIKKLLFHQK
Procedure, shortened: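 Antagonist mode: compounds (8 serial 1:5 dilutions) added to GR-MMTV-luciferase CHO-K1 reporter cells co-exposed to 10 nM dexamethasone final, in phenol red-free DMEM plus 10% CSS. After roughly 18-24 h at 37° C, OneGlo luminescence read and IC50 calculated.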

[1] = antagonist mode, 10 nM Dexamethasone
[2] = antagonist assay with 10 nM Dexamethasone, 18-24 hours

CN(C(=O)[C@H]1CCC2=Cc3c(cnn3-c3ccc(F)cc3)C[C@]2(C(=O)c2cc(C(F)(F)F)ccn2)C1)c1cnn(C)c1 (single isomer, unassigned) [Example 122]
inhibition at 5 min (CYP2C8): ≤ 25%
IC50 (GR; [1]): ≤ 100 nM

CN([C@H]1CCC2=Cc3c(cnn3-c3ccc(F)cc3)C[C@]2(C(=O)c2ccccn2)C1)S(=O)(=O)c1ccc(Cl)cc1 [Example 4, 4-Chloro-N-((4aS,6S)-1-(4-fluorophenyl)-4a-picolinoyl-4,4a,5,6,7,8-hexahydro-1H-benzo[f]indazol-6-yl)-N-methylbenzenesulfonamide]
inhibition at 5 min (CYP2C8): 50 to 75%
IC50 (GR; [2]): ≤ 100 nM

CCn1ncc(S(=O)(=O)[C@H]2CCC3=Cc4c(cnn4-c4ccc(F)cc4)C[C@]3(C(=O)c3cc(C(F)(F)F)ccn3)C2)n1 [Example 52, ((4aS,6S)-6-((2-ethyl-2H-1,2,3-triazol-4-yl)sulfonyl)-1-(4-fluorophenyl)-1,4,5,6,7,8-hexahydro-4aH-benzo[f]indazol-4a-yl)(4-(trifluoromethyl)pyridin-2-yl)methanone]
inhibition at 5 min (CYP2C8): 75 to 90%
IC50 (GR; [2]): ≤ 100 nM

O=C(c1ccc(C(F)(F)F)cn1)[C@]12Cc3cnn(-c4ccc(F)cc4)c3C=C1CC[C@H](S(=O)(=O)c1ccc(F)cc1)C2 [Example 55, ((4aS,6S)-1-(4-fluorophenyl)-6-((4-fluorophenyl)sulfonyl)-1,4,5,6,7,8-hexahydro-4aH-benzo[f]indazol-4a-yl)(5-(trifluoromethyl)pyridin-2-yl)methanone]
inhibition at 5 min (CYP2C8): ≤ 25%
IC50 (GR; [2]): ≤ 100 nM

CC(C)n1ncc(S(=O)(=O)[C@H]2CCC3=Cc4c(cnn4-c4ccc(F)cc4)C[C@]3(C(=O)c3cc(C(F)(F)F)ccn3)C2)n1 [Example 56, ((4aS,6S)-1-(4-fluorophenyl)-6-((2-isopropyl-2H-1,2,3-triazol-4-yl)sulfonyl)-1,4,5,6,7,8-hexahydro-4aH-benzo[f]indazol-4a-yl)(4-(trifluoromethyl)pyridin-2-yl)methanone]
inhibition at 5 min (CYP2C8): 75 to 90%
IC50 (GR; [2]): ≤ 100 nM

Cn1cc(S(=O)(=O)[C@H]2CCC3=Cc4c(cnn4-c4ccc(F)cc4)C[C@]3(C(=O)c3ccc(C(F)(F)F)cn3)C2)cn1 [Example 69, ((4aS,6S)-1-(4-fluorophenyl)-6-((1-methyl-1H-pyrazol-4-yl)sulfonyl)-1,4,5,6,7,8-hexahydro-4aH-benzo[f]indazol-4a-yl)(5-(trifluoromethyl)pyridin-2-yl)methanone]
inhibition at 5 min (CYP2C8): ≤ 25%
IC50 (GR; [2]): ≤ 100 nM

CN([C@H]1CCC2=Cc3c(cnn3-c3ccc(F)cc3)C[C@]2(C(=O)c2cc(C(F)(F)F)ccn2)C1)S(=O)(=O)c1cnn(C)c1 [Example 81, N-((4aS,6S)-1-(4-fluorophenyl)-4a-(4-(trifluoromethyl)picolinoyl)-4,4a,5,6,7,8-hexahydro-1H-benzo[f]indazol-6-yl)-N,1-dimethyl-1H-pyrazole-4-sulfonamide]
inhibition at 5 min (CYP2C8): 25 to 50%
IC50 (GR; [2]): ≤ 100 nM

Cn1cnc(S(=O)(=O)N(CCF)[C@H]2CCC3=Cc4c(cnn4-c4ccc(F)cc4)C[C@]3(C(=O)c3ncc(C(F)(F)F)s3)C2)n1 [Example 112, N-(2-Fluoroethyl)-N-((4aS,6S)-1-(4-fluorophenyl)-4a-(5-(trifluoromethyl)thiazole-2-carbonyl)-4,4a,5,6,7,8-hexahydro-1H-benzo[f]indazol-6-yl)-1-methyl-1H-1,2,4-triazole-3-sulfonamide]
inhibition at 5 min (CYP2C8): 75 to 90%

O=C(c1ncc(C(F)(F)F)s1)[C@]12Cc3cnn(-c4ccc(F)cc4)c3C=C1CC[C@H](N(CC(F)F)S(=O)(=O)c1ccc(F)cc1)C2 [Example 405, N-(2,2-difluoroethyl)-4-fluoro-N-((4aS,6S)-1-(4-fluorophenyl)-4a-(5-(trifluoromethyl)thiazole-2-carbonyl)-4,4a,5,6,7,8-hexahydro-1H-benzo[f]indazol-6-yl)benzenesulfonamide]
IC50 (GR; [1]): ≤ 100 nM

Cn1cc(S(=O)(=O)N(C2CC(F)(F)C2)[C@H]2CCC3=Cc4c(cnn4-c4ccc(F)cc4)C[C@]3(C(=O)c3ncc(C(F)(F)F)s3)C2)cn1 [Example 406, N-(3,3-difluorocyclobutyl)-N-((4aS,6S)-1-(4-fluorophenyl)-4a-(5-(trifluoromethyl)thiazole-2-carbonyl)-4,4a,5,6,7,8-hexahydro-1H-benzo[f]indazol-6-yl)-1-methyl-1H-pyrazole-4-sulfonamide]
IC50 (GR; [1]): ≤ 100 nM

O=C(c1cc(C(F)(F)F)ccn1)[C@]12Cc3cnn(-c4ccc(F)cc4)c3C=C1CC[C@H](N(CC(F)F)S(=O)(=O)c1ccc(F)cc1)C2 [Example 407, N-(2,2-difluoroethyl)-4-fluoro-N-((4aS,6S)-1-(4-fluorophenyl)-4a-(4-(trifluoromethyl)picolinoyl)-4,4a,5,6,7,8-hexahydro-1H-benzo[f]indazol-6-yl)benzenesulfonamide]
IC50 (GR; [1]): ≤ 100 nM

Cn1ccc(S(=O)(=O)N([C@H]2CCC3=Cc4c(cnn4-c4ccc(F)cc4)C[C@]3(C(=O)c3ncc(C(F)(F)F)s3)C2)[C@H]2C[C@@H](C#N)C2)n1 [Example 408, N-((1s,3R)-3-cyanocyclobutyl)-N-((4aS,6S)-1-(4-fluorophenyl)-4a-(5-(trifluoromethyl)thiazole-2-carbonyl)-4,4a,5,6,7,8-hexahydro-1H-benzo[f]indazol-6-yl)-1-methyl-1H-pyrazole-3-sulfonamide]
IC50 (GR; [1]): ≤ 100 nM

Cn1cnc(S(=O)(=O)N(CC2CC2)[C@H]2CCC3=Cc4c(cnn4-c4ccc(F)cc4)C[C@]3(C(=O)c3cc(F)ccn3)C2)n1 [Example 409, N-(cyclopropylmethyl)-N-((4aS,6S)-1-(4-fluorophenyl)-4a-(4-fluoropicolinoyl)-4,4a,5,6,7,8-hexahydro-1H-benzo[f]indazol-6-yl)-1-methyl-1H-1,2,4-triazole-3-sulfonamide]
IC50 (GR; [1]): ≤ 100 nM

Cn1cnc(S(=O)(=O)N(CC2CC2)[C@H]2CCC3=Cc4c(cnn4-c4ccc(F)cc4)C[C@]3(C(=O)c3cc(Cl)ccn3)C2)n1 [Example 410, N-((4aS,6S)-4a-(4-chloropicolinoyl)-1-(4-fluorophenyl)-4,4a,5,6,7,8-hexahydro-1H-benzo[f]indazol-6-yl)-N-(cyclopropylmethyl)-1-methyl-1H-1,2,4-triazole-3-sulfonamide]
IC50 (GR; [1]): ≤ 100 nM

Cn1cc(S(=O)(=O)N(C2CC(F)(F)C2)[C@H]2CCC3=Cc4c(cnn4-c4ccc(F)cc4)C[C@]3(C(=O)c3cc(C(F)(F)F)ccn3)C2)cn1 [Example 411, N-(3,3-difluorocyclobutyl)-N-((4aS,6S)-1-(4-fluorophenyl)-4a-(4-(trifluoromethyl)picolinoyl)-4,4a,5,6,7,8-hexahydro-1H-benzo[f]indazol-6-yl)-1-methyl-1H-pyrazole-4-sulfonamide]
IC50 (GR; [1]): ≤ 100 nM
